Data as given in patent US10851064B2, “ACSS2 inhibitors and methods of use thereof” (METABOMED LTD., priority 2017, dated 2020).

Target: ACSS2 (Homo sapiens, UniProt Q9NR19)
Assay: biochemical
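Also: Cell-free human ACSS2 enzyme reaction with acetate, CoA and ATP, 90 min at 37 C, coupled to pyrophosphatase, phosphate release detected by Biomol Green absorbance at 620 nm.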

Chain of ACSS2 (Q9NR19 whole entry): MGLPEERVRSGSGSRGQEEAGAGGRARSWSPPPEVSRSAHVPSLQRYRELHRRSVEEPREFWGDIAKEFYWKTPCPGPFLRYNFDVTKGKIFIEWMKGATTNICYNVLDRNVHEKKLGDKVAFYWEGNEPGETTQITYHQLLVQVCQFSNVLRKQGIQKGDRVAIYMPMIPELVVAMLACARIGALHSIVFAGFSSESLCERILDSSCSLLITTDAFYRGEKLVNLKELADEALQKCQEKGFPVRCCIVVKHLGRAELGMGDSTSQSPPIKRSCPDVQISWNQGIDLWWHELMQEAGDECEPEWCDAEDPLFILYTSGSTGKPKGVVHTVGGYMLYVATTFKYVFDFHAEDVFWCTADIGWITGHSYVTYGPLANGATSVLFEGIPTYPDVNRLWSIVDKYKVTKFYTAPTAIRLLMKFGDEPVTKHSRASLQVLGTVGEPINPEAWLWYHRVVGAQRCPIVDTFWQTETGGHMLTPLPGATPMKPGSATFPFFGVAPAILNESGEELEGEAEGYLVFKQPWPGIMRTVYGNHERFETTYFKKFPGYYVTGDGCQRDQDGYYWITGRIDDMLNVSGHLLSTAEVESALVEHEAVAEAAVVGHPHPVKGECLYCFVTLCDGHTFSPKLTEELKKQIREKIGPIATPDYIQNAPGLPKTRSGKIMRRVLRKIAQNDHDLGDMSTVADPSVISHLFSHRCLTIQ

| SMILES | IC50 [nM] |
| --- | --- |
| CCC1=NN(c2ccccc2)C(=O)C1C(=O)Nc1cccc(CC)c1 (centres unmarked) [compound 136, 3-ethyl-N-(3-ethylphenyl)-5-oxo-1-phenyl-4,5-dihydro-1H-pyrazole-4-carboxamide] | 1000 to 100000 |
| CCc1cccc(NC(=O)C2C(=O)N(c3ccccc3)N=C2c2ccncc2)c1 (centres unmarked) [compound 137, N-(3-ethylphenyl)-5-oxo-1-phenyl-3-(pyridin-4-yl)-4,5-dihydro-1H-pyrazole-4-carboxamide] | 1000 to 100000 |
| CC1=NN(c2ccccc2)C(=O)C1C(=O)Nc1cccc(S(=O)(=O)N(C)C)c1 (centres unmarked) [compound 139, N-(3-(N,N-dimethylsulfamoyl)phenyl)-3-methyl-5-oxo-1-phenyl-4,5-dihydro-1H-pyrazole-4-carboxamide] | 100 to 1000 |
| CCc1cccc(NC(=O)C2C(=O)N(c3ccc(OCC4CC4)cc3)N=C2C)c1 (centres unmarked) [compound 143, 1-(4-(cyclopropylmethoxy)phenyl)-N-(3-ethylphenyl)-3-methyl-5-oxo-4,5-dihydro-1H-pyrazole-4-carboxamide] | 6 to 100 |
| CCc1cccc(NC(=O)C2C(=O)N(c3ccc(NC(C)=O)cc3)N=C2C)c1 (centres unmarked) [compound 144, 1-(4-acetamidophenyl)-N-(3-ethylphenyl)-3-methyl-5-oxo-4,5-dihydro-1H-pyrazole-4-carboxamide] | 100 to 1000 |
| CC1=NN(c2ccccc2)C(=O)C1C(=O)Nc1cccc(C2CCCC2)c1 (centres unmarked) [compound 146, N-(3-cyclopentylphenyl)-3-methyl-5-oxo-1-phenyl-4,5-dihydro-1H-pyrazole-4-carboxamide] | 100 to 1000 |
| CC1=NN(c2ccccc2)C(=O)C1C(=O)Nc1cccc(CC(C)C)c1 (centres unmarked) [compound 147, N-(3-isobutylphenyl)-3-methyl-5-oxo-1-phenyl-4,5-dihydro-1H-pyrazole-4-carboxamide] | 100 to 1000 |
| CC1=NN(c2ccc(C(F)(F)F)cc2)C(=O)C1C(=O)Nc1cccc(-c2ncc[nH]2)c1 (centres unmarked) [compound 148, N-(3-(1H-imidazol-2-yl)phenyl)-3-methyl-5-oxo-1-(4-(trifluoromethyl)phenyl)-4,5-dihydro-1H-pyrazole-4-carboxamide] | 6 to 100 |
| CC1=NN(c2ccc(C(F)(F)F)cc2)C(=O)C1C(=O)Nc1cccc(-c2cnccn2)c1 (centres unmarked) [compound 150, 3-methyl-5-oxo-N-(3-(pyrazin-2-yl)phenyl)-1-(4-(trifuoromethyl)phenyl)-4,5-dihydro-1H-pyrazole-4-carboxamide] | 6 to 100 |
| CC1=NN(c2ccccc2)C(=O)C1C(=O)Nc1cccc(C(=O)C(F)(F)F)c1 (centres unmarked) [compound 152, 3-methyl-5-oxo-1-phenyl-N-(3-(2,2,2-trifluoroacetyl)phenyl)-4,5-dihydro-1H-pyrazole-4-carboxamide] | 1000 to 100000 |
| CCc1cccc(NC(=O)C2C(=O)N(c3ccc([N+](=O)[O-])cc3)N=C2C)c1 (centres unmarked) [compound 153, N-(3-ethylphenyl)-3-methyl-1-(4-nitrophenyl)-5-oxo-4,5-dihydro-1H-pyrazole-4-carboxamide] | 100 to 1000 |
| CCc1cccc(NC(=O)C2C(=O)N(c3ccc(N)cc3)N=C2C)c1 (centres unmarked) [compound 154, 1-(4-aminophenyl)-N-(3-ethylphenyl)-3-methyl-5-oxo-4,5-dihydro-1H-pyrazole-4-carboxamide] | 100 to 1000 |
| CCc1cccc(NC(=O)C2C(=O)N(c3ccc(NC(=O)N(C)C)cc3)N=C2C)c1 (centres unmarked) [compound 155, 1-(4-(3,3-dimethylureido)phenyl)-N-(3-ethylphenyl)-3-methyl-5-oxo-4,5-dihydro-1H-pyrazole-4-carboxamide] | 100 to 1000 |
| CCc1cccc(NC(=O)C2C(=O)N(c3ccccc3)N=C2c2ccccn2)c1 (centres unmarked) [compound 156, N-(3-ethylphenyl)-5-oxo-1-phenyl-3-(pyridin-2-yl)-4,5-dihydro-1H-pyrazole-4-carboxamide] | 1000 to 100000 |
| CCCOc1ccc(N2N=C(C)C(C(=O)Nc3cccc(CC)c3)C2=O)cc1 (centres unmarked) [compound 158, N-(3-ethylphenyl)-3-methyl-5-oxo-1-(4-propoxyphenyl)-4,5-dihydro-1H-pyrazole-4-carboxamide] | 6 to 100 |
| CC1=NN(c2ccc(S(=O)(=O)N(C)C)cc2)C(=O)C1C(=O)Nc1cccc(-c2ccco2)c1 (centres unmarked) [compound 160, 1-(4-(N,N-dimethylsulfamoyl)phenyl)-N-(3-(furan-2-yl)phenyl)-3-methyl-5-oxo-4,5-dihydro-1H-pyrazole-4-carboxamide] | 6 to 100 |
| CC1=NN(c2ccccc2)C(=O)C1C(=O)Nc1cccc(CC(F)(F)F)c1 (centres unmarked) [compound 161, 3-methyl-5-oxo-1-phenyl-N-(3-(2,2,2-trifluoroethyl)phenyl)-4,5-dihydro-1H-pyrazole-4-carboxamide] | 6 to 100 |
| CC1=NN(c2ccc(C(F)(F)F)cc2)C(=O)C1C(=O)Nc1cccc(-c2ccco2)c1 (centres unmarked) [compound 162, N-(3-(furan-2-yl)phenyl)-3-methyl-5-oxo-1-(4-(trifluoromethyl)phenyl)-4,5-dihydro-1H-pyrazole-4-carboxamide] | 6 to 100 |
| CC1=NN(c2cccc(C(=O)O)c2)C(=O)C1C(=O)Nc1cccc(-c2ncco2)c1 (centres unmarked) [compound 170] | 6 to 100 |
| CC1=NN(c2cccc(C(=O)O)c2)C(=O)C1C(=O)Nc1cccc(-c2ncc[nH]2)c1 (centres unmarked) [compound 172] | 6 to 100 |
| CC1=NN(c2ccc(S(=O)(=O)N(C)C)cc2)C(=O)C1C(=O)Nc1cccc(-c2ncc[nH]2)c1 (centres unmarked) [compound 173, N-(3-(1H-imidazol-2-yl)phenyl)-1-(4-(N,N-dimethylsulfamoyl)phenyl)-3-methyl-5-oxo-4,5-dihydro-1H-pyrazole-4-carboxamide] | 100 to 1000 |
| CC1=NN(c2ccccc2)C(=O)C1C(=O)Nc1cccc(-c2nnc[nH]2)c1 (centres unmarked) [compound 174] | 100 to 1000 |

| SMILES | IC50 [nM] |
| --- | --- |
| CCNC(c1cccc(NC(=O)C2C(=O)N(c3ccccc3)N=C2C)c1)C(F)(F)F (centres unmarked) [compound 176] | 1000 to 100000 |
| N#Cc1ccc(OCCNC(=O)c2cccc(C(O)CO)c2)cc1 (centres unmarked) [compound 179] | 1000 to 100000 |
| N#Cc1ccc(OCCNC(=O)C(N)c2ccccc2)cc1 (centres unmarked) [compound 180] | > 100000 |
| CC1=NN(c2ccccc2)C(=O)C1C(=O)Nc1ccccc1 (centres unmarked) [compound 182, 3-methyl-5-oxo-N,1-diphenyl-4,5-dihydro-1H-pyrazole-4-carboxamide] | 1000 to 100000 |
| CC1=NN(c2ccccc2)C(=O)C1C(=O)Nc1cccc2ccccc12 (centres unmarked) [compound 185, 3-methyl-N-(naphthalen-1-yl)-5-oxo-1-phenyl-4,5-dihydro-1H-pyrazole-4-carboxamide] | 1000 to 100000 |
| COc1ccc(NC(=O)C2C(=O)N(c3ccccc3)N=C2C)cc1 (centres unmarked) [compound 188, N-(4-methoxyphenyl)-3-methyl-5-oxo-1-phenyl-4,5-dihydro-1H-pyrazole-4-carboxamide] | 1000 to 100000 |
| CC1=NN(c2ccccc2)C(=O)C1C(=O)Nc1ccc(F)cc1 (centres unmarked) [compound 189, N-(4-fluorophenyl)-3-methyl-5-oxo-1-phenyl-4,5-dihydro-1H-pyrazole-4-carboxamide] | 1000 to 100000 |
| Cc1c(C(=O)Nc2ccccc2)c(=O)n(-c2ccccc2)n1C [compound 190, 1,5-dimethyl-3-oxo-N,2-diphenyl-2,3-dihydro-1H-pyrazole-4-carboxamide] | > 100000 |
| CC1=NN(c2ccccc2)C(=O)C1C(=O)Nc1cccnc1 (centres unmarked) [compound 191, 3-methyl-5-oxo-1-phenyl-N-(pyridin-3-yl)-4,5-dihydro-1H-pyrazole-4-carboxamide] | 1000 to 100000 |
| CC1=NN(c2ccccn2)C(=O)C1C(=O)Nc1ccccc1 (centres unmarked) [compound 192, 5-hydroxy-3-methyl-N-phenyl-1-(pyridin-2-yl)-1H-pyrazole-4-carboxamide] | > 100000 |
| CC1=NN(c2ccncc2)C(=O)C1C(=O)Nc1ccccc1 (centres unmarked) [compound 193, 3-methyl-5-oxo-N-phenyl-1-(pyridin-4-yl)-4,5-dihydro-1H-pyrazole-4-carboxamide] | > 100000 |
| CC1=NN(c2cccnc2)C(=O)C1C(=O)Nc1ccccc1 (centres unmarked) [compound 195, 3-methyl-5-oxo-N-phenyl-1-(pyridin-3-yl)-4,5-dihydro-1H-pyrazole-4-carboxamide] | > 100000 |
| COc1ccc(N2N=C(C)C(C(=O)Nc3ccccc3)C2=O)cc1 (centres unmarked) [compound 197, 1-(4-methoxyphenyl)-3-methyl-5-oxo-N-phenyl-4,5-dihydro-1H-pyrazole-4-carboxamide] | 1000 to 100000 |
| CC1=NN(c2ccc3ccccc3c2)C(=O)C1C(=O)Nc1ccccc1 (centres unmarked) [compound 198, 5-hydroxy-3-methyl-1-(naphthalen-2-yl)-N-phenyl-1H-pyrazole-4-carboxamide] | 1000 to 100000 |
| CNC(=O)C1C(=O)N(c2ccccc2)N=C1C (centres unmarked) [compound 199, N,3-dimethyl-5-oxo-1-phenyl-4,5-dihydro-1H-pyrazole-4-carboxamide] | > 100000 |
| CC1=NN(c2ccccc2)C(=O)C1C(=O)NC(C)C (centres unmarked) [compound 200, N-isopropyl-3-methyl-5-oxo-1-phenyl-4,5-dihydro-1H-pyrazole-4-carboxamide] | > 100000 |
| CC1=NN(c2ccc(C(F)(F)F)cc2)C(=O)C1C(=O)Nc1ccccc1 (centres unmarked) [compound 201, 3-methyl-5-oxo-N-phenyl-1-(4-(trifluoromethyl)phenyl)-4,5-dihydro-1H-pyrazole-4-carboxamide] | 1000 to 100000 |
| CC1=NN(C2CCS(=O)(=O)C2)C(=O)C1C(=O)Nc1ccccc1 (centres unmarked) [compound 202, 1-(1,1-dioxidotetrahydrothiophen-3-yl)-3-methyl-5-oxo-N-phenyl-4,5-dihydro-1H-pyrazole-4-carboxamide] | > 100000 |
| CC(=O)c1ccc(NC(=O)C2C(=O)N(c3ccccc3)N=C2C)cc1 (centres unmarked) [compound 203, N-(4-acetylphenyl)-3-methyl-5-oxo-1-phenyl-4,5-dihydro-1H-pyrazole-4-carboxamide] | 1000 to 100000 |
| CC1=NN(c2ccccc2)C(=O)C1C(=O)N(C)c1ccccc1 (centres unmarked) [compound 204, N,3-dimethyl-5-oxo-N,1-diphenyl-4,5-dihydro-1H-pyrazole-4-carboxamide] | > 100000 |
| CC1=NN(c2ccccc2)C(=O)C1C(=O)Nc1ccc(O)cc1 (centres unmarked) [compound 205, N-(4-hydroxyphenyl)-3-methyl-5-oxo-1-phenyl-4,5-dihydro-1H-pyrazole-4-carboxamide] | 1000 to 100000 |
| CC1=NN(c2ccccc2)C(=O)C1C(=O)NC(=O)c1ccccc1 (centres unmarked) [compound 207, N-benzoyl-3-methyl-5-oxo-1-phenyl-4,5-dihydro-1H-pyrazole-4-carboxamide] | 1000 to 100000 |
